Data set [1] relates to A549. Put plainly: Antiproliferative activity against human A549 cells assessed as inhibition of cell growth measured after 72 hrs by SRB method. It counts as functional, cell-based. Particulars: A549, 72 h. (The SRB assay estimates cell density from bound dye.)
The nature of data set [2]: Water solubility of the compound in PBS buffer at pH 2.0 incubated for 24 hrs under shaking condition by HPLC analysis. It counts as physicochemical.
Data set [3] in a line: Water solubility of the compound in PBS buffer at pH 7.4 incubated for 24 hrs under shaking condition by HPLC analysis. It counts as physicochemical.
Data set [4] in a line: Water solubility of the compound […] at pH 9.0 incubated for 24 hrs under shaking condition by HPLC analysis. It counts as physicochemical.
A short description of data set [5]: Permeability of the compound in PBS buffer assessed as drug recovery at pH 7.4 incubated for 16 hrs by PAMPA method. Particulars: read-out: Drug recovery. It counts as ADME.
Data set [6] has as its system NCI-H441. The data set can be described thus: Antiproliferative activity against human NCI-H441 cells assessed as inhibition of cell growth measured after 72 hrs by SRB method. It counts as functional, cell-based. Particulars: NCI-H441, 72 h.
For data set [7], the system named is NCI-H1299. The data set can be described thus: Antiproliferative activity against human NCI-H1299 cells assessed as inhibition of cell growth measured after 72 hrs by SRB method. It counts as functional, cell-based. Particulars: NCI-H1299, 72 h.
For data set [8], the system named is NCI-H522. The data set can be described thus: Antiproliferative activity against human NCI-H522 cells assessed as inhibition of cell growth measured after 72 hrs by SRB method. It counts as functional, cell-based. Particulars: NCI-H522, 72 h.
For data set [9], the system named is A549. Put plainly: Inhibition of colony formation in human A549 cells at 0.5 uM measured after 48 days by crystal violet staining based inverted microscopic analysis relative to control. Particulars: A549, 1152 h, time 48 day. It counts as functional.
Data set [10] has as its system NCI-H1299. Put plainly: Inhibition of colony formation in human NCI-H1299 cells at 0.05 to 0.5 uM measured after 48 hrs by crystal violet staining based inverted microscopic analysis. It counts as functional, cell-based. Particulars: dose 0.05-0.5 µM.
For data set [11], the system named is A549. Put plainly: Inhibition of cell migration in human A549 cells incubated for 48 hrs by wound healing assay. It counts as functional, cell-based. Particulars: dose 0.05-0.5 µM.
Data set [12] has as its system A549. Put plainly: Inhibition of cell invasion in human A549 cells incubated for 48 hrs by crystal violet staining based transwell assay. It counts as functional. Particulars: dose 0.05-0.5 µM.
Data set [13] deals with A549. The data set can be described thus: Inhibition of cell migration in human A549 cells at 0.5 uM incubated for 48 hrs by wound healing assay relative to control. It counts as functional.
The subject of data set [14] is A549. The data set can be described thus: Inhibition of cell invasion in human A549 cells at 0.5 uM incubated for 48 hrs by crystal violet staining based transwell assay relative to control. It counts as functional.
Data set [15] deals with A549. The data set can be described thus: Induction of cell cycle arrest in human A549 cells assessed as accumulation at G2/M phase at high concentration measured after 48 hrs by flow cytometric analysis. It counts as functional, cell-based.
Data set [16] deals with A549. The data set can be described thus: Induction of cell cycle arrest in human A549 cells assessed as accumulation at G2/M phase measured after 48 hrs by flow cytometric analysis. Particulars: dose 0.05-0.5 µM. It counts as functional, cell-based. (In general: In flow cytometry, cells or beads pass a laser one at a time.)
Data set [17] has as its system A549. The data set can be described thus: Induction of cell apoptosis in human A549 cells assessed as increase in early apoptotic cells at 0.05 uM measured after 48 hrs by Annexin V-FITC/PI staining based flow cytometry analysis. It counts as functional.
Data set [18] concerns A549. Put plainly: Induction of cell apoptosis in human A549 cells assessed as increase in early apoptotic cells measured after 48 hrs by Annexin V-FITC/PI staining based flow cytometry analysis. It counts as functional. Particulars: dose 0.05-0.5 µM.
Data set [19] deals with A549. The data set can be described thus: Downregulation of TbetaRI protein expression in human A549 cells measured after 48 hrs by Western blot analysis. It counts as functional, cell-based. Particulars: dose 0.05-0.5 µM. On the technique in general: In western blotting, separated proteins are transferred to a membrane and probed.
In data set [20] the test system is A549. The data set can be described thus: Downregulation of Smad2/3 phosphorylation level in human A549 cells measured after 48 hrs by Western blot analysis. It counts as functional, cell-based. Particulars: dose 0.05-0.5 µM.
Data set [21] concerns A549. The data set can be described thus: Antitumor activity against human A549 cells xenografted in female BALB/c nude mouse model assessed as decrease in tumor volume at 10 mg/kg via gavage fed with corn oil and measured every other day. It counts as functional, organism-based.
Data set [22] has as its system A549. The data set can be described thus: Antitumor activity against human A549 cells xenografted in female BALB/c nude mouse model assessed as decrease in tumor weight at 10 mg/kg via gavage fed with corn oil and measured every other day. It counts as functional, organism-based.
Data set [23] in a line: Toxicity in female BALB/c nude mouse assessed as effect on body weight loss at 10 mg/kg via gavage fed with corn oil for every other day. It counts as organism-based. Particulars: in vivo, po.
Data set [24] concerns A549. The data set can be described thus: Antitumor activity against human A549 cells xenografted in female BALB/c nude mouse model assessed as decrease in TbetaRI expression level at 10 mg/kg via gavage by Western blot analysis. It counts as functional, organism-based.
Data set [25] concerns A549. Put plainly: Antitumor activity against human A549 cells xenografted in female BALB/c nude mouse model assessed as decrease in TbetaRI level at 10 mg/kg via gavage by immunochemical staining based analysis. It counts as functional, organism-based.
The test system of data set [26] is A549. Put plainly: Antitumor activity against human A549 cells xenografted in female BALB/c nude mouse model assessed as decrease in Ki-67 expression at 10 mg/kg via gavage by immunochemical staining based analysis. It counts as functional, organism-based.
Data set [27] concerns A549. Put plainly: Antiproliferative activity against human A549 cells harbouring si-NC at 0.5 uM by Western blot analysis relative to control. It counts as functional.
Data set [28] deals with A549. Put plainly: Antiproliferative activity against human A549 cells harbouring TbetaI knockout at 0.5 uM by Western blot analysis. It counts as functional, cell-based.
The subject of data set [29] is NCI-H1299. Put plainly: Antiproliferative activity against human NCI-H1299 cells harbouring TbetaI by Western blot analysis. It counts as functional, cell-based. Particulars: dose 0.05-0.5 µM.

The text below walks through data of ChEMBL document CHEMBL6115037, “Discovery of novel small molecules targeting TGF-β signaling for the treatment of non-small cell lung cancer” (Eur J Med Chem, 2025).

≈ marks a conversion by molar mass, not a printed value. Calls of active or inactive are those of the source. No cut-off for these calls is given here.

By IC50 is commonly meant the concentration that gives 50% inhibition. The term thermodynamic solubility denotes solubility found after equilibrating the solid with the medium. One may read the inhibition as the drop in the measured response relative to a control, in per cent.

As to `O=C(NCCO)c1cccc2c3c([nH]c12)CN(C(=O)Cc1c(F)cccc1F)CC3`, the IC50 in data set [1] is more than 5000 nM.
Take `O=C(NC1CCC(O)C1)c1cccc2c3c([nH]c12)CN(C(=O)Cc1cccs1)CC3` (stereo not drawn): the 50% inhibitory concentration (IC50) amounted to 50 nM in data set [1], 90 nM in data set [6], 210 nM in [7] and 260 nM in data set [8]. Moreover, the thermodynamic solubility at 24 h in data set [2] was determined as 40 µM (≈ 16.9 µg/mL); in data set [3] it was 41.4 µM (≈ 17.5 µg/mL); in [4] it was 50.4 µM (≈ 21.3 µg/mL). In data set [5], the recovery at 16 h worked out at 65.8%. Besides, the inhibition at 0.5 µM in data set [9], in data set [13] and in data set [14] was 100% throughout. Moreover, in [10], the inhibition entry was “Active”. Further, the inhibition entry in [11] and in data set [12] was “Dose-dependent-effect” throughout. Further, the outcome in data set [15], in data set [17], in data set [21], in [22], in data set [24] and in [25] was Active. Further, the outcome in data set [26] was Active. Besides, the Activity entry was “Dose-dependent-effect” in data set [16]; “Dose-dependent-effect” in data set [18]; “Dose-dependent-effect” in data set [19]; “Dose-dependent-effect” in data set [20]; “Non-toxic” in data set [23]; 100% in data set [27]. Moreover, the Activity entry in data set [29] is “Dose-dependent-effect”. For the same compound, in data set [28], the outcome was inactive.
For `C=CC(=O)Nc1cc(C(=O)NCCO)c2[nH]c3c(c2c1)CCN(C(=O)Cc1ccccc1F)C3`, in [1], the 50% inhibitory concentration (IC50) was more than 5000 nM.
Take `O=C(NC1CCC(O)C1)c1cccc2c3c([nH]c12)CN(C(=O)Cc1ccccc1F)CC3` (stereo not drawn): the concentration for half-maximal inhibition (IC50) in data set [1] turned out to be 220 nM.
`O=C(NC1CCCCC1O)c1cccc2c3c([nH]c12)CN(C(=O)Cc1ccccc1F)CC3` (stereo not drawn): the 50% inhibitory concentration (IC50) in [1] was more than 5000 nM.
As for `O=C(NCCO)c1cccc2c3c([nH]c12)CN(S(=O)(=O)Cc1ccccc1F)CC3`, the IC50 in [1] is 1640 nM.
Turning to `C[C@]12CC[C@H]3[C@@H](CCC4=CC(=O)CC[C@@]43C)[C@@H]1CC[C@@H]2O` [TESTOSTERONE], in [5], the recovery at 16 h was found to be 85.6%.
Turning to `O=C(Cc1ccccc1F)N1CCc2c([nH]c3c(C(=O)N4CCC(O)CC4)cccc23)C1`, the half-inhibitory concentration (IC50) in data set [1] is more than 5000 nM.
Same read-out and setting: for `O=C(NCCO)c1cccc2c3c([nH]c12)CN(C(=O)Cc1ccco1)CC3` the value was 4010 nM; for `O=C(NCCO)c1cc(NC(=O)C2CCNCC2)cc2c3c([nH]c12)CN(C(=O)Cc1ccccc1F)CC3`, more than 5000 nM.
Take `O=C(Cc1ccccc1)N1CCc2c([nH]c3ccccc23)C1`: the IC50 in [1] was found to be 9130 nM. The solubility (thermodynamic) at 24 h is 2.23 µM (≈ 0.648 µg/mL) in [2], 7.24 µM (≈ 2.1 µg/mL) in data set [3] and 10.7 µM (≈ 3.11 µg/mL) in data set [4]. For the same compound, the recovery at 16 h in data set [5] came out at 24.4%.
With `O=C(NCCO)c1cccc2c3c([nH]c12)CN(C(=O)NCc1ccccc1F)CC3`, the IC50 in data set [1] was more than 5000 nM.
Turning to `O=C(NC1CCC(C(=O)O)C1)c1cccc2c3c([nH]c12)CN(C(=O)Cc1ccccc1F)CC3` (stereo not drawn), in [1], the IC50 was more than 5000 nM.
Same read-out and setting: as for `O=C(Cc1ccccc1F)N1CCc2c([nH]c3c(C(=O)N4CCC(CO)CC4)cccc23)C1`, the figure is more than 5000 nM; as for `O=C(Cc1ccccc1F)N1CCc2c([nH]c3c(C(=O)N4CCN(C5COC5)CC4)cccc23)C1`, more than 5000 nM.
The same measure, in the same setting: for `O=C(NC12CC3CC(CC(O)(C3)C1)C2)c1cccc2c3c([nH]c12)CN(C(=O)Cc1ccccc1F)CC3` the value was 130 nM.
In the case of `O=C(NCCO)c1cccc2c3c([nH]c12)CN(C(=O)Nc1ccccc1F)CC3`, the half-maximal inhibitory concentration (IC50) in [1] is more than 5000 nM.
As to `CN(Cc1cnc2nc(N)nc(N)c2n1)c1ccc(C(=O)N[C@@H](CCC(=O)O)C(=O)O)cc1` [METHOTREXATE], the recovery at 16 h in data set [5] is 96.2%.
Turning to `NC1CCC(NC(=O)c2cccc3c4c([nH]c23)CN(C(=O)Cc2ccccc2F)CC4)C1` (stereo not drawn), the IC50 in [1] is more than 5000 nM.
Regarding `O=C(NCCO)c1cccc2c3c([nH]c12)CN(C(=O)Cc1cccs1)CC3`, the half-maximal inhibitory concentration (IC50) in [1] is 380 nM.
For the compound `O=C(NC1CCC(O)CC1)c1cccc2c3c([nH]c12)CN(C(=O)Cc1ccccc1F)CC3` (stereo not drawn), the concentration for half-maximal inhibition (IC50) in [1] stood at 490 nM.
In the case of `O=C(NC1CCCC1O)c1cccc2c3c([nH]c12)CN(C(=O)Cc1cccs1)CC3` (stereo not drawn), the IC50 in data set [1] was 70 nM.
Consider `NCCC(=O)Nc1cc(C(=O)NCCO)c2[nH]c3c(c2c1)CCN(C(=O)Cc1ccccc1F)C3`, for which the IC50 in data set [1] was more than 5000 nM.
`O=C(NC1CCCC(O)C1)c1cccc2c3c([nH]c12)CN(C(=O)Cc1ccccc1F)CC3` (stereo not drawn): the half-inhibitory concentration (IC50) in data set [1] turned out to be 120 nM.
The same measure, in the same setting: for `CC(=O)Nc1cc(C(=O)NCCO)c2[nH]c3c(c2c1)CCN(C(=O)Cc1ccccc1F)C3` the value was more than 5000 nM.
`O=C(NCCO)c1cccc2c3c([nH]c12)CN(C(=O)Cc1ccccc1F)CC3`: the 50% inhibitory concentration (IC50) in [1] is 220 nM.
The same measure, in the same setting: for `O=C(NCCO)c1cc(NC(=O)C2CCOCC2)cc2c3c([nH]c12)CN(C(=O)Cc1ccccc1F)CC3` the value was more than 5000 nM; for `O=C(Cc1ccccc1F)N1CCc2c([nH]c3c(C(=O)N4CCNCC4)cccc23)C1`, more than 5000 nM; for `O=C(NC1CCCC1O)c1cccc2c3c([nH]c12)CN(C(=O)Cc1ccccc1F)CC3` (stereo not drawn), 930 nM.
Same read-out and setting: as for `NC1CCC(OC(=O)c2cccc3c4c([nH]c23)CN(C(=O)Cc2ccccc2F)CC4)CC1` (stereo not drawn), the figure is more than 5000 nM; as for `O=C(Cc1ccccc1F)N1CCc2c([nH]c3c(C(=O)N4CCC(O)C4)cccc23)C1` (stereo not drawn), more than 5000 nM.
